“Also recorded” adds a separate entry of the source.
Tests used:
CB2 receptor = CB2 receptor (Homo sapiens, UniProt P34972); settings: read-out: Ki for the CB2 receptor; Huffman et al., Biorg. Med. Chem. 1999; cited from earlier work
CB1 receptor = molecular target: T1, CB1 receptor (Rattus norvegicus, UniProt P20272); assay: CB1 receptor binding assay, [3H]CP-55,940 displacement, whole brain P2 membranes
T1 construct: except whole brain (rather than cortex only) was used; from tissue; host or cells: whole brain P2 membranes
T1 sequence (P20272 whole entry): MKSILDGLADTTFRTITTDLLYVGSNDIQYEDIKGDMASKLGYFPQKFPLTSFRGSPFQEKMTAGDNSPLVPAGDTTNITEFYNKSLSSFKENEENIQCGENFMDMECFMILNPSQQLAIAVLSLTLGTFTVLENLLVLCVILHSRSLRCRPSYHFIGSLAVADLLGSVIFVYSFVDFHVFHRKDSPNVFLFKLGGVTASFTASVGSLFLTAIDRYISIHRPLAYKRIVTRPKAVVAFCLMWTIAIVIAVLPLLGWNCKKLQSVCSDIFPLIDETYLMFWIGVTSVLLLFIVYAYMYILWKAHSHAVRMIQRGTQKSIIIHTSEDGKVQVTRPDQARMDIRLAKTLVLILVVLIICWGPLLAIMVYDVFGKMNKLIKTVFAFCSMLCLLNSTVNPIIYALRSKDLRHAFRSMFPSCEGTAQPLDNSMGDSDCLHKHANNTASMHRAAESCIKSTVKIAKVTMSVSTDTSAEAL
Protocol: 1. CB1 Assay. [^3H] […] Displacement curves were generated by incubating drugs with 1 nM of [^3H] CP-55,940. The assays were performed in triplicate, and the results represent the combined data from three individual experiments.
CP-55,940 and all cannabinoid analogs were prepared by suspension in assay buffer from a 1 mg/mL ethanolic stock without evaporation of the ethanol (final concentration of no more than 0.4%). […] Displacement IC50 values were originally determined by unweighted least-squares linear regression of log concentration-percent displacement data and then converted to Ki values using the method of Cheng and Prusoff(Cheng, Y. C.; Prusoff, W. H. Biochem. Pharmacol. 1973, 22, 3099.)

[1] = molecular target: T2, human CB2 receptor (transfected human embryonic kidney 293 cells) (Homo sapiens, UniProt P34972); assay: CB2 receptor binding assay, [3H]CP-55,940 displacement; settings: for Fold selectivity for CB2 over CB1: ratio of CB1 to CB2 affinity
T2 construct: expressed in transfected cells
T2 sequence (P34972 whole entry): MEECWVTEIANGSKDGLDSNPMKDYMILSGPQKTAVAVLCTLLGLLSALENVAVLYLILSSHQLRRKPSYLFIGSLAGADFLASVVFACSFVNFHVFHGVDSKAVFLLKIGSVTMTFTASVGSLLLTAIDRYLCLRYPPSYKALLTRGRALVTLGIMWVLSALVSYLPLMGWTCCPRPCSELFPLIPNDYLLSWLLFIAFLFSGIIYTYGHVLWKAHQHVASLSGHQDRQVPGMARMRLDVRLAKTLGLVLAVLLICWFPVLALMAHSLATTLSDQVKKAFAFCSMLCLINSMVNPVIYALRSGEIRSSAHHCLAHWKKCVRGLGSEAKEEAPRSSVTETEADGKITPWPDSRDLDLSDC
Protocol: 2. CB2 Assay. Human embryonic kidney 293 cells were maintained in Dulbecco's modified Eagle's medium (DMEM) with 10% fetal clone II (HyClone, Logan Utah) and 5% CO2 at 37° C. in a Forma incubator. Cell lines were created by transfection of CB2pcDNA3 into 293 cells by the Lipofectamine reagent (Life Technologies, Gaithersburg, Md.). The human CB2 cDNA was a gift. Stable transformants were selected in growth medium containing geneticin (1 mg/mL, reagent, Life Technologies, Gaithersburg, Md.). Colonies of about 500 cells were picked (about 2 weeks post transfection) and allowed to expand, then tested for expression of receptor mRNA by northern blot analysis. Cell lines containing moderate to high levels of receptor mRNA were tested for receptor binding properties. Transfected cell lines were maintained in DMEM with 10% fetal clone II plus 0.3-0.5 mg/mL geneticin and 5% CO2 at 37° C. in a Forma incubator.
The current assay is a modification of Compton et al. (Compton, D. R.; Rice, K. C.; De Costa, B. R.; Razdan, R. K.; Melvin, L. S.; Johnson, M. R.; Martin, B. R. J. Pharmacol Exp. Ther. 1993, 265, 218.) Cells were harvested in phosphate-buffered saline containing 1 mM EDTA and centrifuged at 500 g. The cell pellet was homogenized in 10 mL of solution A (50 mM Tris-HCl, 320 mM sucrose, 2 mM EDTA, 5 mM MgCl2, pH 7.4). The homogenate was centrifuged at 1,600×g (10 min), the supernatant saved, and the pellet washed three times in solution A with subsequent centrifugation. The combined supernatants were centrifuged at 100,000×g (60 min). The (P2 membrane) pellet was resuspended in 3 mL of buffer B (50 mM Tris-HCl, 1 mM EDTA, 3 mM MgCl2, pH 7.4) to yield a protein concentration of approximately 1 mg/mL. The tissue preparation was divided into equal aliquots, frozen on dry ice, and stored at −70° C. Binding was initiated by the addition of 40-50 μg membrane protein to silanized tubes containing [^3H]CP-55,940 (102.9 Ci/mmol) and a sufficient volume of buffer C (50 mM Tris-HCl, 1 mM EDTA, 3 mM MgCl2, and 5 mg/mL fatty acid free BSA, pH 7.4) to bring the total volume to 0.5 mL. The addition of 1 μM unlabelled CP-55,940 was used to assess nonspecific binding. Following incubation (30° C. for 1 hour), binding was terminated by the addition of 2 mL of ice cold buffer D (50 mM Tris-HCl, pH 7.4, plus 1 mg/mL BSA) and rapid vacuum filtration through Whatman GF/C filters (pretreated with polyethyleneimine (0.1%) for at least 2 hours). Tubes were rinsed with 2 mL of ice cold buffer D, which was also filtered, and the filters subsequently rinsed twice with 4 mL of ice cold buffer D. Before radioactivity was quantitated by liquid scintillation spectrometry, filters were shaken for 1 hr in 5 mL of scintillation fluid.
CP-55,940 and all cannabinoid analogs were prepared by suspension in assay buffer from a 1 mg/mL ethanolic stock without evaporation of the ethanol (final concentration of no more than 0.4%). Competition assays were conducted with 1 nM [^3H]-CP55,940 and 6 concentrations (0.1 nM to 10 μM displacing ligands). Displacement IC50 values were originally determined by unweighted least-squares linear regression of log concentration-percent displacement data and then converted to Ki values using the method of Cheng and Prusoff(Cheng, Y. C.; Prusoff, W. H. Biochem. Pharmacol. 1973, 22, 3099.)

[2] = tested on: formalin model of inflammatory pain; assay: Formalin model of inflammatory pain; type: in vivo; settings: male ICR mice
Protocol: One of the above CB2 selective agonists was chosen for testing in the formalin model of inflammatory pain in mice. Subjects consisted of male ICR mice (Harlan Labs) weighing between 20-25 g. The formalin test was carried out in an open Plexiglas cage, with a mirror placed under the floor to allow an unobstructed view of the paws. Mice were allowed to acclimate for 15 min in the test cage before formalin injection. Each animal was injected with 20 μl of 2.5% formalin in the intraplantar region of the right hindpaw. Mice were then observed 0-5 min (Phase 1) and 20-45 min (Phase 2) post-formalin, and the amount of time spent licking the injected paw was recorded. The drug was injected i.p. 30 min before formalin injection.

Chain of CB2 receptor (P34972 whole entry): as above

| SMILES | Ki (CB2 receptor) [µM] | Ki (CB1 receptor) [µM] | Ki [1] [µM] | Fold selectivity for CB2 over CB1 [1] [fold] | pain response (time spent licking injected paw) ([2]; 20 mg/kg i.p. 30 min before formalin, listed as JWH-350) | nociception, dose dependence ([2]; i.p. 30 min before formalin) |
| --- | --- | --- | --- | --- | --- | --- |
| CCCCCCC(C)(C)c1ccc2c(c1)OC(C)(C)C1CC=C(C)CC21 (stereo not drawn) [1-deoxy-Δ^8-THC-DMH] | 0.003 | – | – | – | – | – |
| CCC[C@H](C)Cc1ccc2c(c1)OC(C)(C)[C@@H]1CC=C(C)C[C@@H]21 [Compound 255, 1-Deoxy-3-(2′S-methylpentyl)-Δ^8-tetrahydrocannabinol] | – | 4.31 ± 0.649 | 0.0243 ± 0.0086 | 174 | – | – |
| CCCCC(C)(C)c1cc(OC)c2c(c1)OC(C)(C)[C@@H]1CC[C@@H](O)C[C@@H]21 [Compound 299, 1-Deoxy-9β-hydroxy-1-methoxy-3-(1′,1′dimethylpentyl)-11-nor-hexahydrocannabinol] | – | 0.415 ± 0.0498 | 0.0298 ± 0.00177 | 14 | – | – |
| CCCC(C)(C)c1ccc2c(c1)OC(C)(C)[C@@H]1CC[C@@H](O)C[C@@H]21 [Compound 310, 1-Deoxy-9β-hydroxy-3-(1′,1′dimethylbutyl)-11-nor-hexahydrocannabinol] | – | 1.06 | 0.0361 ± 0.0028 | 29 | – | – |
| CCCCCC(C)(C)c1cc(OC)c2c(c1)OC(C)(C)[C@@H]1CC[C@H](O)C[C@@H]21 [Compound 349, 9α-Hydroxy-1-methoxy-3-(1′,1′dimethylhexyl)-11-nor-hexahydrocannabinol] | – | 0.3757 ± 0.0007 | 0.038 ± 0.0043 | 10 | – | – |
| CCCCCC(C)(C)c1cc(OC)c2c(c1)OC(C)(C)[C@@H]1CC[C@@H](O)C[C@@H]21 [Compound 350, 9β-Hydroxy-1-methoxy-3-(1′,1′dimethylhexyl)-11-nor-hexahydrocannabinol] | – | 0.395 ± 0.0198 | 0.0118 ± 0.00103 | 33 | completely inhibited pain response; also recorded: completely eliminating the pain response | inhibits nociception in a dose-dependent manner |
| CC[C@H](C)Cc1ccc2c(c1)OC(C)(C)[C@@H]1CC=C(C)C[C@@H]21 [Compound 352, 1-Deoxy-3-(2′S-methylbutyl)-Δ^8-tetrahydrocannabinol] | – | > 10 | 0.0465 ± 0.00216 | 213 | – | – |
| CC[C@@H](C)Cc1ccc2c(c1)OC(C)(C)[C@@H]1CC=C(C)C[C@@H]21 [Compound 353, 1-Deoxy-3-(2′R-methylbutyl)-Δ^8-tetrahydrocannabinol] | – | 1.493 ± 0.01 | 0.0313 ± 0.00078 | 48 | – | – |
| CC[C@@H](C)Cc1cc(OC)c2c(c1)OC(C)(C)[C@@H]1CC=C(C)C[C@@H]21 [Compound 359, 1-Methoxy-3-(2′R-methylbutyl)-Δ^8-tetrahydrocannabinol] | – | 2.92 ± 0.45 | 0.0133 ± 0.00015 | 219 | – | – |

From patent publication US20060183922A1, “CB2-selective cannabinoid derivatives” (priority 2005, published 2006)
